Data as given in US20240408093A1, “HETEROBIFUNCTIONAL COMPOUNDS AND THEIR USE IN TREATING DISEASE” (HALDA THERAPEUTICS OPCO, INC., priority 2022, published 2024).

How the values were obtained:
[1] = system: HEK293 cells (ATCC CRL-1573); experiment: Cellular growth inhibition assay, HEK293 cells (Example 16); type: cell-based; details: Homo sapiens, 72 hours, CellTiter-Glo 2.0
Method: (§1) Exemplary compounds were tested for ability to inhibit the proliferation of HEK293 cells (ATCC CRL-1573) and HeLa cells (ATCC CCL-2).
(§2) HEK293 and HeLa cells were cultured in DMEM (Gibco 11995), supplemented with 10% Heat-inactivated FBS (Gibco A38400-01) and 1% Penicillin/Streptomycin (Gibco 15140-122) at 37° C. with 5% CO2 in a humidified tissue culture incubator. Cells were seeded at 500 cells/well in 384-well, Poly-D-lysine-treated blackplates (Perkin Elmer 6007710) in 25 μL media lacking selection for 18-24 hours. Plates were spun at 300 g for 30 seconds and stored in the incubator overnight. After 24 hours, a 25 μL aliquot of compound-containing medium was added in each well, at a final top concentration of 10 μM test compound, with 3-fold dilutions, using DMSO alone as a negative control. Plates were then spun at 300×g for 3 minutes again and cultured at 37° C. with 5% CO2. After 72 hours, cell viability was quantified with CellTiter-Glo 2.0 (Promega). After equilibrating cell plates at room temperature for 30 minutes, 25 μL CellTiter-Glo 2.0 reagent was dispensed into each well. Plates were mixed on a shaker for 2 minutes at 500 rpm, followed by a 10-minute incubation at room temperature. Luminescence readings were measured with an EnVision Plate Reader (Perkin Elmer). Data was normalized to DMSO treated cell wells. A four-parameter non-linear regression curve fit was applied to dose-response data in Prism to determine the half maximal growth inhibitory concentration (GI50) of each compound.

HeLa cells (ATCC CCL-2) = experiment: Cellular growth inhibition assay, HeLa cells (Example 16); type: cell-based; details: Homo sapiens, 72 hours, CellTiter-Glo 2.0
Method: as §1, §2

GSPT1 = target: T1, GSPT1 (Homo sapiens, UniProt P15170+Q96SW2); experiment: GSPT1 HiBiT degradation assay; type: cell-based; details: HEK293 LgBiT GSPT1 HiBiT cells, 6 hours
T1 construct: host or cells: HEK293 LgBiT / GSPT1 HiBiT CRISPR knock-in
T1 sequence (P15170 whole entry): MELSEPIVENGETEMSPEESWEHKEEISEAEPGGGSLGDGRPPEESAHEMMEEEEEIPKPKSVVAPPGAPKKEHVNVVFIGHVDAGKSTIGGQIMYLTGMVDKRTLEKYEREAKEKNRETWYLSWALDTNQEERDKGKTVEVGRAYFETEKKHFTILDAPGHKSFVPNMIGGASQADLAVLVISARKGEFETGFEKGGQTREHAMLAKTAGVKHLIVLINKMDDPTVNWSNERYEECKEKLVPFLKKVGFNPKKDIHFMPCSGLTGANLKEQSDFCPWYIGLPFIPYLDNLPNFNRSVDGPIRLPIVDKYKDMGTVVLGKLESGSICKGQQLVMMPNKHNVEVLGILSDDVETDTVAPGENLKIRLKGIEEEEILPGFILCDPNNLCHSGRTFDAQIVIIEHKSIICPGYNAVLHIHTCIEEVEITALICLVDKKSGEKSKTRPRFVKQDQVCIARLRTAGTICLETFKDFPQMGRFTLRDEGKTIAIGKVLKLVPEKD
T1 sequence (Q96SW2 whole entry): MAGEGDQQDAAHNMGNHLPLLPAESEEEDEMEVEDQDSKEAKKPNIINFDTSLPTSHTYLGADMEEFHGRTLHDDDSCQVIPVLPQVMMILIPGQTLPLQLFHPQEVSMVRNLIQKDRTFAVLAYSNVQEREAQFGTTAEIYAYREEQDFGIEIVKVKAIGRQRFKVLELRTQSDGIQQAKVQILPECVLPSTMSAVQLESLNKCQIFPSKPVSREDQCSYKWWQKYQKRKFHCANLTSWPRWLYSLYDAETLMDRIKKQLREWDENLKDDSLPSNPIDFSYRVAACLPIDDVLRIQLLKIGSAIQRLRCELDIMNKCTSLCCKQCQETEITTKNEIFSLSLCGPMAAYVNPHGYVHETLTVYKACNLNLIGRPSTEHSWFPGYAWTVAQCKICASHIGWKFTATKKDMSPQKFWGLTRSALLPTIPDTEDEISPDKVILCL
T1 sequence (Q16531 whole entry partner): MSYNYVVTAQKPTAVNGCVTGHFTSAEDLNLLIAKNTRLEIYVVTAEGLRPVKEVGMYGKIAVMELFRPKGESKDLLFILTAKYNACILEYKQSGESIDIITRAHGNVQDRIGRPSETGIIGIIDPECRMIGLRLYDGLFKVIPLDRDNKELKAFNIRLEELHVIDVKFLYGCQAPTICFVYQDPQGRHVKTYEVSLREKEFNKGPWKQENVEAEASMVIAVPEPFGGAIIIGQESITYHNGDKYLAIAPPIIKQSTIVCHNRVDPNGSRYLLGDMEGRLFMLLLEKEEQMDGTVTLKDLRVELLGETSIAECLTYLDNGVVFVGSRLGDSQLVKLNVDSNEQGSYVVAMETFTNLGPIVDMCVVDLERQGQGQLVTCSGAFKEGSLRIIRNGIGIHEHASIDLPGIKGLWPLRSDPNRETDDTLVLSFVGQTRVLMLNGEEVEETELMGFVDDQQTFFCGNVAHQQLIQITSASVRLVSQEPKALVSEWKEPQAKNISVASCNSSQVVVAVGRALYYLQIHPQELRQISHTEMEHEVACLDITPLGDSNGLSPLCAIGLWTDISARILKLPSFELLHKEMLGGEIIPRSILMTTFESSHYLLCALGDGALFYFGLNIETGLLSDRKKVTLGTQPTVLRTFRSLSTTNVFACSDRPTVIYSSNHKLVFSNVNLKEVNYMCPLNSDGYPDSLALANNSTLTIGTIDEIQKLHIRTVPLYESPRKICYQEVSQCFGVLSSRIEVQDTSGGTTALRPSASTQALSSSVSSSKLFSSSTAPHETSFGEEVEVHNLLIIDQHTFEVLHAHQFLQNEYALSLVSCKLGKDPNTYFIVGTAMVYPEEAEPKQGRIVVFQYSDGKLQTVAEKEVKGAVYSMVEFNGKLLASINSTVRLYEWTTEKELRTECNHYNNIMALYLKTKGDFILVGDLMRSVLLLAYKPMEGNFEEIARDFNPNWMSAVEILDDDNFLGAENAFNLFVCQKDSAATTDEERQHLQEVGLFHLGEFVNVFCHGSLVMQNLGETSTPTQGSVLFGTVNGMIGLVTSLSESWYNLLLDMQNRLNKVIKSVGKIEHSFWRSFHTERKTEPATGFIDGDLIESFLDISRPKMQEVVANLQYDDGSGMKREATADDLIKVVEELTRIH
From the text: Promega developed a HEK293 cell line that constitutively expresses LgBiT protein and GSPT1_HiBiT fusion protein. When both proteins are present, the HiBiT portion of the fusion protein combines with LgBiT protein to form a functional luciferase enzyme. Endurazine, a cell permeable small molecule, is converted by cellular esterases into furimazine, which the luciferase enzyme uses as a substrate to generate luminescence. When GSPT1 is degraded, the HiBit is also degraded. This prevents formation of fully functional luciferase, leading to a loss in luminescence. GSPT1 degradation therefore correlates with a decrease in luminescence and can be measured continuously over time. The concentration of compound at which 50% GSPT1 degradation occurs (DC50) may be calculated using this system.
HEK293 LgBiTGSPT1 HiBiT CRISPR Knock-in cells were cultured in DMEM Media supplemented with 10% Heat-inactivated FBS, 1% Penicillin/Streptomycin, 200 μg/mL hygromycin and stored in a humidified incubator set at 37° C. and 5% CO2. 18-24 hours prior to compound treatment, cells were seeded at 1000 cells/well in a 384-well tissue culture-treated white plates in 25 μL media lacking selection for 18-24 hours. The plates were spun at 300 g for 30 seconds and stored in the incubator overnight. After 24 hours, compounds are titrated in DMSO and added to media supplemented with endurazine substrate. A 25 μL aliquot of 2× compound/endurazine in media is then added to the 384-well microplate with seeded cells. (Endurazine is used at a final concentration of 0.5×). The plate was spun at 300 g for 30 seconds and stored in the incubator. After 6 hours, the plate was read on a Perkin Elmer MultiMode Plate Reader Envision 2105 to measure luminescence signal. Data were plotted in Prism (Graphpad) and the concentration of compound at which 50% GSPT1 degradation occurs (DC50) was calculated.

KRAS G12C = KRAS G12C (Homo sapiens, UniProt P01116, G12C); experiment: KRAS G12C nucleotide exchange assay (SOS1-mediated, HTRF); type: biochemical; design: GST-tagged KRAS G12C (amino acids 2-169); details: 1 hr pre-incubation
Sequence of KRAS G12C (P01116 2-169 isoform P01116-2 G12C): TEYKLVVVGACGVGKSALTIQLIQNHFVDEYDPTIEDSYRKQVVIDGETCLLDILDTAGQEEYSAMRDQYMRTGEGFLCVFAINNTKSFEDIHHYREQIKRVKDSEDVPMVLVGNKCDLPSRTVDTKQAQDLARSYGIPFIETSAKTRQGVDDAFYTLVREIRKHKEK
Method: KRAS target engagement (IC50 determination) was performed using a KRAS G12C nucleotide exchange assay. Specifically, compounds were tested against KRAS G12C in 10-point concentration IC50 mode with 3-fold serial dilution at a starting concentration of 10 μM. ARS1620 was used as a control.
Briefly, GST-tagged KRAS G12C (amino acids 2-169) was mixed with anti-GST Tb antibody (1.5× solution) and 10 μL was delivered to reaction wells. Compounds were delivered using an acoustic dispenser (Echo, Labcyte) and pre-incubated with protein for 1 hr at RT. KRAS/anti-GST Tb Ab/compound mixture was incubated for 1 hour at room temperature. A 3× solution of SOS1 (amino acids 564-1049) and GTP-DY-647P1 (GTP*) was prepared in reaction buffer. A 5 μL aliquot of SOS1/GTP* solution was added to reaction wells to initiate the exchange reaction. No-SOS1 reaction or max compound concentration was used as blank. The final concentrations of KRAS G12C, SOS1, and GTP* were 30 nM, 20 nM, and 0.15 μM, respectively. SOS1 mediated exchange of GDP to GTP-DY-647P was measured using HTRF (Ex/Em=(320-75/665-7.5; 615-8.5)) using an Envision Plate Reader (Perkin Elmer). IC50 determination was performed using a Sigmoidal dose response (variable slope) equation.

Compound	GI50 [1] [µM]	GI50 (HeLa cells (ATCC CCL-2)) [µM]	DC50 (GSPT1) [µM]	IC50 (KRAS G12C) [µM]
C=C(COC(=O)NC1CCC(Nc2nc(NCc3ccc(-c4ccccn4)cc3)c3ncn(C(C)C)c3n2)CC1)C(=O)N1CCN(c2nc(OC[C@@H]3CCCN3C)nc3c2CCN(c2cccc4cccc(Cl)c24)C3)C[C@@H]1CC#N (stereo partly shown) [II-192]	0.5 to 1.5	< 0.5	–	–
C=C(COc1ccc2c(Cl)c(NC(=O)NCc3ccc4c(c3)CN(C3CCC(=O)NC3=O)C4=O)ccc2c1)C(=O)N1CCN(c2nc(OC[C@@H]3CCCN3C)nc3c2CCN(c2cccc4cccc(Cl)c24)C3)C[C@@H]1CC#N (stereo partly shown) [Compound I-92]	< 0.5	> 10	–	–
C=C(CN(C(=O)NCc1ccc2c(c1)CN(C1CCC(=O)NC1=O)C2=O)c1ccc(OC)c(Cl)c1)C(=O)N1CCC[C@@H](n2nc(-c3ccc(Oc4ccccc4)cc3)c3c(N)ncnc32)C1 (stereo partly shown) [Compound I-39]	> 10	> 10	> 2.5	–
C=C(CN1C(=O)CCC(N2Cc3cc(CNC(=O)Nc4ccc(C)c(Cl)c4)ccc3C2=O)C1=O)C(=O)N1CCN(c2nc(OC[C@@H]3CCCN3C)nc3c2CCN(c2cccc4cccc(Cl)c24)C3)C[C@@H]1CC#N (stereo partly drawn) [Compound I-2, 1-(3-chloro-4-methyl-phenyl)-3-[[2-[1-[2-[(2S)-4-[7-(8-chloro-1-naphthyl)-2-[[(2S)-1-methylpyrrolidin-2-yl]methoxy]-6,8-dihydro-5H-pyrido[3,4-d]pyrimidin-4-yl]-2-(cyanomethyl)piperazine-1-carbonyl]allyl]-2,6-dioxo-3-piperidyl]-1-oxo-isoindolin-5-yl]methyl]urea]	–	–	0.05 to 0.5	> 10
C=C(COC(=O)NCc1cc(Cl)cc(NC(=O)NCc2ccc3c(c2)CN(C2CCC(=O)NC2=O)C3=O)c1)C(=O)N1CCC[C@@H](n2nc(-c3ccc(Oc4ccccc4)cc3)c3c(N)ncnc32)C1 (stereo partly drawn) [Compound I-53, 2-((R)-3-(4-amino-3-(4-phenoxyphenyl)-1H-pyrazolo[3,4-d]pyrimidin-1-yl)piperidine-1-carbonyl)allyl (3-chloro-5-(3-((2-(2,6-dioxopiperidin-3-yl)-1-oxoisoindolin-5-yl)methyl)ureido)benzyl)carbamate]	0.5 to 1.5	0.5 to 1.5	0.05 to 0.5	–
C=C(CN1C(=O)CCC(N2Cc3cc(CNC(=O)NCc4cccc(C(F)(F)F)c4O)ccc3C2=O)C1=O)C(=O)N1CCN(c2nc(OC[C@@H]3CCCN3C)nc3c2CCN(c2cccc4cccc(Cl)c24)C3)C[C@@H]1CC#N (stereo in doubt) [Compound I-94]	1.5 to 10	> 10	–	–
C=C(COc1cccc(NC(=O)NCc2ccc3c(c2)CN(C2CCC(=O)NC2=O)C3=O)c1Cl)C(=O)N1CCN(c2nc(OC[C@@H]3CCCN3C)nc3c2CCN(c2cccc4cccc(Cl)c24)C3)C[C@@H]1CC#N (stereo partly shown) [Compound I-91]	> 10	> 10	–	–
C=C(CN(C(=O)NCc1ccc2c(c1)CN(C1CCC(=O)NC1=O)C2=O)c1cc(Cl)cc(OC)c1)C(=O)N1CCC[C@@H](n2nc(-c3ccc(Oc4ccccc4)cc3)c3c(N)ncnc32)C1 (stereo partly shown) [Compound I-40]	> 10	> 10	> 2.5	–
C=C(CN1C(=O)CCC(N2Cc3cc(CNC(=O)Nc4ccc(C)c(Cl)c4)ccc3C2=O)C1=O)C(=O)N1CCN(c2nc(=O)n(-c3c(C)ccnc3C(C)C)c3nc(-c4c(O)cccc4F)c(F)cc23)[C@@H](C)C1 (stereo partly drawn) [Compound I-1, 1-(3-chloro-4-methyl-phenyl)-3-[[2-[1-[2-[(3S)-4-[6-fluoro-7-(2-fluoro-6-hydroxy-phenyl)-1-(2-isopropyl-4-methyl-3-pyridyl)-2-oxo-pyrido[2,3-d]pyrimidin-4-yl]-3-methyl-piperazine-1-carbonyl]allyl]-2,6-dioxo-3-piperidyl]-1-oxo-isoindolin-5-yl]methyl]urea]	–	–	0.5 to 2.5	–
C=C(CN(C(=O)NCc1ccc2c(c1)CN(C1CCC(=O)NC1=O)C2=O)c1ccc(C)c(Cl)c1)C(=O)N1CCN(c2nc(OC[C@@H]3CCCN3C)nc3c2CCN(c2cccc4cccc(Cl)c24)C3)C[C@@H]1CC#N (stereo partly shown) [Compound I-34]	< 0.5	1.5 to 10	0.05 to 0.5	–
C=C(COc1c(F)cc(CN2C(=O)CCC(N3Cc4cc(CNC(=O)Nc5ccc(C)c(Cl)c5)ccc4C3=O)C2=O)cc1F)C(=O)N1CCC[C@@H](n2nc(-c3ccc(Oc4ccccc4)cc3)c3c(N)ncnc32)C1 (stereo partly shown) [Compound I-51]	> 10	> 10	> 2.5	–
C=C(COc1cc(NC(=O)NCc2ccc3c(c2)CN(C2CCC(=O)NC2=O)C3=O)cc(OC)c1Cl)C(=O)N1CCN(c2nc(OC[C@@H]3CCCN3C)nc3c2CCN(c2cccc4cccc(Cl)c24)C3)C[C@@H]1CC#N (stereo partly shown) [Compound I-96]	> 10	> 10	–	–
C=C(CN(C(=O)NCc1ccc2c(c1)CN(C1CCC(=O)NC1=O)C2=O)c1cc(Cl)cc([N+](=O)[O-])c1)C(=O)N1CCC[C@@H](n2nc(-c3ccc(Oc4ccccc4)cc3)c3c(N)ncnc32)C1 (stereo partly shown) [Compound I-37]	–	–	> 2.5	–
C=C(COc1ccc(CN2C(=O)CCC(N3Cc4cc(CNC(=O)Nc5ccc(C)c(Cl)c5)ccc4C3=O)C2=O)cc1)C(=O)N1CCC[C@@H](n2nc(-c3ccc(Oc4ccccc4)cc3)c3c(N)ncnc32)C1 (stereo partly shown) [Compound I-36]	> 10	> 10	> 2.5	–
C=C(COc1c(Cl)cccc1NC(=O)NCc1ccc2c(c1)CN(C1CCC(=O)NC1=O)C2=O)C(=O)N1CCC[C@@H](n2nc(-c3ccc(Oc4ccccc4)cc3)c3c(N)ncnc32)C1 (stereo partly shown) [Compound I-115]	1.5 to 10	0.5 to 1.5	< 0.05	–
C=C(CN(Cc1ccc2c(c1)CN(C1CCC(=O)NC1=O)C2=O)C(=O)Nc1ccc(C)c(Cl)c1)C(=O)N1CCN(c2nc(OC[C@@H]3CCCN3C)nc3c2CCN(c2cccc4cccc(Cl)c24)C3)C[C@@H]1CC#N (stereo partly shown) [Compound I-33]	1.5 to 10	1.5 to 10	> 2.5	–
C=C(Cn1ccc2ccc(NC(=O)NCc3ccc4c(c3)CN(C3CCC(=O)NC3=O)C4=O)cc21)C(=O)N1CCN(c2nc(OC[C@@H]3CCCN3C)nc3c2CCN(c2cccc4cccc(Cl)c24)C3)C[C@@H]1CC#N (stereo partly shown) [Compound I-93]	0.5 to 1.5	0.5 to 1.5	–	–
